Measurements taken from patent US10294229B2, “Heteroaryl substituted aminopyridine compounds” (BRISTOL-MYERS SQUIBB COMPANY, priority 2015, dated 2019).

How the values were obtained:
IRAK4 = IRAK4 (Homo sapiens (Human), UniProt Q9NWZ3); assay: IRAK4 Inhibition Assay; format: biochemical; settings: ATP 500 μM; IRAK4 0.6 nM
How it was run: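 Mobility-shift readout: phosphorylated and unphosphorylated fluorescent peptide (1.5 μM) resolved by electrophoresis after a 60 min room-temperature reaction stopped with EDTA. Reaction holds 0.6 nM IRAK4, 500 μM ATP and 1.6% DMSO in HEPES pH 7.2/MgCl2/Brij 35/DTT buffer; percent inhibition set against vehicle and no-enzyme controls.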

[1] = test system: Human whole blood stimulated with a TLR2 agonist (lipoteichoic acid), IL-6 levels; assay: IRAK4 Whole Blood Assay; format: cell-based; settings: Homo sapiens, lipoteichoic acid 10 μg/mL
Method: Human whole blood containing the anti-coagulant ACD-A was plated in 384-well plate (25 μL/well) and incubated with compounds for 60 minutes at 37° C. in a 5% CO2 incubator. The blood was stimulated with a TLR2 agonist, 10 μg/mL final concentration of lipoteichoic acid (Invivogen, San Diego, Calif.) in 25 μL RPMI (Gibco) for 5 hours in a 5% CO2 incubator. At the end of the incubation, plates were centrifuged at 2300 rpm for 5 minutes. Supernatants were harvested and analyzed for IL-6 levels by Flow Cytometry beads assay (BD Biosciences, San Jose, Calif.).

Sequence of IRAK4 (Q9NWZ3 whole entry, species assumed): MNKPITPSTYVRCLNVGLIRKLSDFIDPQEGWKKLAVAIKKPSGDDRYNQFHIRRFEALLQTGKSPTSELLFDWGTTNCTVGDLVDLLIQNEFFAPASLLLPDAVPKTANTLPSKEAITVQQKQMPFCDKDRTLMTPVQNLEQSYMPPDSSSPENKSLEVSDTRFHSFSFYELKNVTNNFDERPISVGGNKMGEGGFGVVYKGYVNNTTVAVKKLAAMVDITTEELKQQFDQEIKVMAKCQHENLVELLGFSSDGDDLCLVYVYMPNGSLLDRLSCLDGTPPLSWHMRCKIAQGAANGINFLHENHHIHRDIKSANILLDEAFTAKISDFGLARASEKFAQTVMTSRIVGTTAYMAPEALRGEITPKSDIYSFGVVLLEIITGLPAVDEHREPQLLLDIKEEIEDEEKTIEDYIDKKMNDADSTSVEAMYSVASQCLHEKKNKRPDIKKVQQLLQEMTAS

Structure (SMILES): CC(C)Nc1cc(-n2ncc3cc(C#N)cnc32)ncc1-c1cc([C@@H]2CCCCN2S(C)(=O)=O)on1 [Example 432, (S)-1-(4-(isopropylamino)-5-(5-(1-(methylsulfonyl)piperidin-2-yl)isoxazol-3-yl)pyridin-2-yl)-1H-pyrazolo[3,4-b]pyridine-5-carbonitrile]
- IC50 (IRAK4): 1 nM
- EC50 [1]: 370 nM

Structure (SMILES): CC(C)Nc1cc(-n2ncc3cc(C#N)cnc32)ncc1-c1cn(C2CN(C(=O)C(C)(C)C)C2)nn1 [Example 146, 1-(4-(isopropylamino)-5-(1-(1-pivaloylazetidin-3-yl)-1H-1,2,3-triazol-4-yl)pyridin-2-yl)-1H-pyrazolo[3,4-b]pyridine-5-carbonitrile]
- IC50 (IRAK4): 3 nM
- EC50 [1]: 1090 nM

Structure (SMILES): CC(=O)N1CCN(C(=O)Cn2cc(-c3cnc(-n4ncc5cc(C#N)cnc54)cc3NC(C)C)nn2)CC1 [Example 194, 1-(5-(1-(2-(4-acetylpiperazin-1-yl)-2-oxoethyl)-1H-1,2,3-triazol-4-yl)-4-(isopropylamino)pyridin-2-yl)-1H-pyrazolo[3,4-b]pyridine-5-carbonitrile]
- IC50 (IRAK4): 6 nM
- EC50 [1]: 620 nM

Structure (SMILES): CC(C)Nc1cc(-n2ncc3cc(C#N)cnc32)ncc1-c1cn(CC(O)C(C)C)nn1 (stereo not shown) [Example 135, 1-(5-(1-(2-hydroxy-3-methylbutyl)-1H-1,2,3-triazol-4-yl)-4-(isopropylamino)pyridin-2-yl)-1H-pyrazolo[3,4-b]pyridine-5-carbonitrile]
- IC50 (IRAK4): 4 nM
- EC50 [1]: 1190 nM

Structure (SMILES): CCS(=O)(=O)N1CCC(c2cn(-c3cnc(-n4ncc5cc(C#N)cnc54)cc3NC(C)C)nn2)CC1 [Example 346, 1-(5-(4-(1-(ethylsulfonyl)piperidin-4-yl)-1H-1,2,3-triazol-1-yl)-4-(isopropylamino)pyridin-2-yl)-1H-pyrazolo[3,4-b]pyridine-5-carbonitrile]
- IC50 (IRAK4): 6 nM
- EC50 [1]: 460 nM

Structure (SMILES): CC(C)Nc1cc(-n2ncc3cc(C#N)cnc32)ncc1-c1cc([C@@H]2CCCCN2)on1 [Example 430, (S)-1-(4-(isopropylamino)-5-(5-(piperidin-2-yl)isoxazol-3-yl)pyridin-2-yl)-1H-pyrazolo[3,4-b]pyridine-5-carbonitrile]
- EC50 [1]: 470 nM

Structure (SMILES): C[C@@H](CO)Nc1cc(-n2ncc3cc(C#N)cnc32)ncc1-n1cc(CCC(C)(C)O)nn1 [Example 376, (S)-1-(5-(4-(3-hydroxy-3-methylbutyl)-1H-1,2,3-triazol-1-yl)-4-((1-hydroxypropan-2-yl)amino)pyridin-2-yl)-1H-pyrazolo[3,4-b]pyridine-5-carbonitrile]
- EC50 [1]: 380 nM

Structure (SMILES): CC(F)Cc1cn(-c2cnc(-n3ncc4cc(C#N)cnc43)cc2NC(C)C)nn1 (stereo not shown) [Example 294, 1-(5-(4-(2-fluoropropyl)-1H-1,2,3-triazol-1-yl)-4-(isopropylamino)pyridin-2-yl)-1H-pyrazolo[3,4-b]pyridine-5-carbonitrile]
- EC50 [1]: 1710 nM

Structure (SMILES): CC(C)(O)CCc1cn(-c2cnc(-n3ncc4cc(C#N)cnc43)cc2NC2CCC(O)CC2)nn1 (stereo not shown) [Example 385, 1-(5-(4-(3-hydroxy-3-methylbutyl)-1H-1,2,3-triazol-1-yl)-4-(((1 s,4s)-4-hydroxycyclohexyl)amino)pyridin-2-yl)-1H-pyrazolo[3,4-b]pyridine-5-carbonitrile]
- EC50 [1]: 490 nM

Structure (SMILES): CC(C)Nc1cc(-n2ncc3cc(C#N)cnc32)ncc1-n1cc(CCN)nn1 [Example 328, 1-(5-(4-(2-aminoethyl)-1H-1,2,3-triazol-1-yl)-4-(isopropylamino)pyridin-2-yl)-1H-pyrazolo[3,4-b]pyridine-5-carbonitrile]
- IC50 (IRAK4): 26 nM

Structure (SMILES): CC(C)Nc1cc(-n2ncc3cc(C#N)cnc32)ncc1-c1cn(-c2cccnc2)cn1 [Example 224, 1-(4-(isopropylamino)-5-(1-(pyridin-3-yl)-1H-imidazol-4-yl)pyridin-2-yl)-1H-pyrazolo[3,4-b]pyridine-5-carbonitrile]
- IC50 (IRAK4): 87 nM

Structure (SMILES): CC(C)Nc1cc(-n2ncc3cc(C#N)cnc32)ncc1-c1cn(CCN)nn1 [Example 172, 1-(5-(1-(2-aminoethyl)-1H-1,2,3-triazol-4-yl)-4-(isopropylamino)pyridin-2-yl)-1H-pyrazolo[3,4-b]pyridine-5-carbonitrile]
- EC50 [1]: 950 nM

Structure (SMILES): CC(C)Nc1cc(-n2ncc3cc(C#N)cnc32)ncc1-n1ccc(C#N)n1 [Example 248, 1-(5-(3-cyano-1H-pyrazol-1-yl)-4-(isopropylamino)pyridin-2-yl)-1H-pyrazolo[3,4-b]pyridine-5-carbonitrile]
- IC50 (IRAK4): 66 nM

Structure (SMILES): CC(C)Nc1cc(-n2ncc3cc(C#N)cnc32)ncc1-c1cn([C@H]2CCN(C(=O)c3cccnc3)C[C@H]2O)nn1 [Example 184, 1-(5-(1-((3R,4S)-3-hydroxy-1-nicotinoylpiperidin-4-yl)-1H-1,2,3-triazol-4-yl)-4-(isopropylamino)pyridin-2-yl)-1H-pyrazolo[3,4-b]pyridine-5-carbonitrile]
- IC50 (IRAK4): 20 nM

Structure (SMILES): CC(C)Nc1cc(-n2cnc3cc(C#N)cnc32)ncc1-c1cn([C@@H]2COC[C@H]2O)nn1 (single isomer, unassigned) [Example 74]
- IC50 (IRAK4): 7 nM

Structure (SMILES): CCCc1cn(-c2cnc(-n3cnc4cc(C#N)cnc43)cc2NC2COC2)nn1 [Example 277, 3-(4-(oxetan-3-ylamino)-5-(4-propyl-1H-1,2,3-triazol-1-yl)pyridin-2-yl)-3H-imidazo[4,5-b]pyridine-6-carbonitrile]
- IC50 (IRAK4): 87 nM

Structure (SMILES): CCCn1cc(-c2cnc(-n3ncc4cc(C#N)cnc43)cc2Nc2cnn(CC)c2)nn1 [Example 58, 1-(4-((1-ethyl-1H-pyrazol-4-yl)amino)-5-(1-propyl-1H-1,2,3-triazol-4-yl)pyridin-2-yl)-1H-pyrazolo [3,4-b]pyridine-5-carbonitrile]
- IC50 (IRAK4): 93 nM

Structure (SMILES): CC(C)Nc1cc(-n2ncc3cc(C#N)cnc32)ncc1-n1cc(C(N)=O)nn1 [Example 309, 1-(6-(5-cyano-1H-pyrazolo[3,4-b]pyridin-1-yl)-4-(isopropylamino)pyridin-3-yl)-1H-1,2,3-triazole-4-carboxamide]
- IC50 (IRAK4): 304 nM

Structure (SMILES): CC(C)Nc1cc(-n2ncc3cc(C#N)cnc32)ncc1-c1cn(-c2ccccc2C#N)nn1 [Example 173, 1-(5-(1-(2-cyanophenyl)-1H-1,2,3-triazol-4-yl)-4-(isopropylamino)pyridin-2-yl)-1H-pyrazolo [3,4-b]pyridine-5-carbonitrile]
- IC50 (IRAK4): 26 nM

Structure (SMILES): CC(C)Nc1cc(-n2ncc3cc(C#N)cnc32)ncc1-c1cn(C2COC2)nn1 [Example 15, 1-(4-(isopropylamino)-5-(1-(oxetan-3-yl)-1H-1,2,3-triazol-4-yl)pyridin-2-yl)-1H-pyrazolo[3,4-b]pyridine-5-carbonitrile]
- IC50 (IRAK4): 7 nM

Structure (SMILES): CC(C)Nc1cc(-n2ncc3cc(C#N)cnc32)ncc1-c1cnn(C2CCOCC2)c1 [Example 257, 1-(4-(isopropylamino)-5-(1-(tetrahydro-2H-pyran-4-yl)-1H-pyrazol-4-yl)pyridin-2-yl)-1H-pyrazolo[3,4-b]pyridine-5-carbonitrile]
- IC50 (IRAK4): 20 nM

Structure (SMILES): CC(C)Nc1cc(-n2ncc3cc(C#N)cnc32)ncc1-c1cn(CCCc2ccccc2)cn1 [Example 241, 1-(4-(isopropylamino)-5-(1-(3-phenylpropyl)-1H-imidazol-4-yl)pyridin-2-yl)-1H-pyrazolo [3,4-b]pyridine-5-carbonitrile]
- IC50 (IRAK4): 35 nM

Structure (SMILES): CC(C)Nc1cc(-n2ncc3cc(C#N)cnc32)ncc1-n1cc(CCO)nn1 [Example 302, 1-(5-(4-(2-hydroxyethyl)-1H-1,2,3-triazol-1-yl)-4-(isopropylamino)pyridin-2-yl)-1H-pyrazolo[3,4-b]pyridine-5-carbonitrile]
- IC50 (IRAK4): 29 nM
